Reference: patent US20230065814A1, “CONJUGATES OF-ELECTRON-PAIR-DONATING HETEROAROMATIC NITROGEN-COMPRISING COMPOUNDS” (Ascendis Pharma A/S, priority 2019, published 2023)

Experiment: In vitro release kinetics (Example 34): cleavage rate of the reversible bond at pH 7.4 and 37° C. in aqueous buffer
Format: physicochemical
Details: aqueous sodium phosphate buffer, read-out: t1/2 (pH 7.4) (converted)
Procedure: For soluble examples disappearance of the conjugate was determined by LCMS (UV detection) and fitted with curve fitting software to obtain the preliminary half-life of the release. For insoluble examples (hydrogels) the increase in released heteroaromatic moiety containing molecule in the supernatant was determined by LCMS (UV detection) and used as input for the curve fitting software to obtain the preliminary half-life of the release.
Compounds marked with “**” were synthesized for comparison.

Compound | half-life [days]
CNCCNC(=O)[C@H](CC(=O)n1ncc2ccccc21)N(C)C(=O)CCCCCS(=O)(=O)O [1 h] | < 0.000694
CCCCOC(=O)n1nc(C(=O)O)c2ccccc21 [Compound 6a] | 21
CCCC(C)OC(=O)n1nc(C(=O)O)c2ccccc21 (stereo not shown) [Compound 6b] | 99
CC(C)(C)OC(=O)n1nc(C(=O)O)c2ccccc21 [Compound 6c] | 0.0833
CC(CCC(=O)NCCC(=O)O)OC(=O)n1nc(C(=O)O)c2ccccc21 (stereo not shown) [Compound 6d] | 36
CC(=O)N[C@H](C(=O)O)[C@H](C)OC(=O)n1nc(C(=O)O)c2ccccc21 [Compound 6e] | 1
O=C(O)CCNC(=O)[C@H]1CC[C@H](OC(=O)n2nc(C(=O)O)c3ccccc32)CC1 [Compound 6f] | 39
CCCNC(=O)CN(C)C(=O)n1nc(C(=O)O)c2ccccc21 [Compound 7a] | 3.5
CCC(C)NC(=O)CN(C)C(=O)n1nc(C(=O)O)c2ccccc21 (stereo not shown) [Compound 7b] | 17
CC(C)[C@H](NC(=O)CN(C)C(=O)n1nc(C(=O)O)c2ccccc21)C(=O)O [Compound 7c] | > 180
CCCNC(=O)CCN(C)C(=O)n1nc(C(=O)O)c2ccccc21 [Compound 7d] | > 180
CCN(CC(=O)NC(C)CCCCC(=O)O)C(=O)n1nc(C(=O)O)c2ccccc21 (stereo not shown) [Compound 7e] | 52
CCN(CC(=O)NCCCCCC(=O)O)C(=O)n1nc(C(=O)O)c2ccccc21 [Compound 7f] | 9.6
CCN(CC(=O)NCCC(=O)O)C(=O)n1nc(C(=O)O)c2ccccc21 [Compound 7g] | 7.7
CCCNC(=O)CN(CC)C(=O)n1nc(C(=O)O)c2ccccc21 [Compound 7h] | 8.1
CCCNC(=O)n1nc(C(=O)O)c2ccccc21 [Compound 7i] | > 180
CN(C)CCN(C)C(=O)n1nc(C(=O)O)c2ccccc21 [Compound 7j] | 0.121
CN(C)CCCN(C)C(=O)n1nc(C(=O)O)c2ccccc21 [Compound 7k] | 164
C[C@@H](CC(=O)NCCCCCC(=O)O)NC(=O)CN(C)C(=O)n1nc(C(=O)O)c2ccccc21 [Compound 8a] | 2.4
C[C@H](NC(=O)CN(C)C(=O)n1nc(C(=O)O)c2ccccc21)C(=O)NCCCCCC(=O)O [Compound 8b] | 0.342
C[C@@H](C(=O)NCCCCCC(=O)O)N(C)C(=O)n1nc(C(=O)O)c2ccccc21 [Compound 8c] | 13
O=C(O)CCCCCNC(=O)[C@@H]1CCCN1C(=O)n1nc(C(=O)O)c2ccccc21 [Compound 8d] | 12

Experiment: In vitro release kinetics (Example 59): cleavage rate of the reversible bond at 37° C. in aqueous buffer, conditions A-F
Format: physicochemical
Details: aqueous sodium phosphate buffer, pH 7.4
Procedure: The cleavage rate of the reversible bond from conjugates 9a-d, 13a-e and 17b-q was monitored at 37° C. in aqueous buffer (condition A: pH 7.4 60 mM sodium phosphate, 1% acetonitrile, B: pH 7.4 48 mM sodium phosphate, 20% acetonitrile, 0.1% Pluronic F68, C: pH 7.4 48 mM sodium phosphate with 16 mM L-Methionine 2.4 mM EDTA, 0.1% pluronic and 20% acetonitrile, D: pH 7.0 48 mM sodium phosphate with 16 mM L-Methionine 2.4 mM EDTA, 0.1% pluronic and 20% acetonitrile, E: pH 7.4 60 mM sodium phosphate, F: pH 7.4 48 mM sodium phosphate, 20% acetonitrile). For soluble examples disappearance of the conjugate was determined by LCMS (UV detection) and fitted with curve fitting software to obtain the half-life of the release. For insoluble examples (hydrogels) the increase in released axitinib in the supernatant was determined by LCMS (UV detection) and used as input for the curve fitting software to obtain the half-life of the release. Release rates at pH 7.4 for conjugates only incubated at pH 7.0 are estimated to increase by a factor of 2 to 3.
The compounds marked with “*” are not in accordance with the present invention as they were for efficiency reasons not linked to a moiety Z. Nevertheless, they show the release half-lives of such moieties -L^1-.

Compound | half-life [h]
CCN(CC(=O)NCCC(=O)O)C(=O)n1nc(/C=C/c2ccccn2)c2ccc(Sc3ccccc3C(=O)NC)cc21 [Compound 9a] | 96
CNC(=O)c1ccccc1Sc1ccc2c(/C=C/c3ccccn3)nn(C(=O)N(C)CC(=O)N[C@@H](C)CC(=O)O)c2c1 [Compound 9b] | 276
CNC(=O)c1ccccc1Sc1ccc2c(/C=C/c3ccccn3)nn(C(=O)N(C)CC(=O)N[C@H](C(=O)O)C(C)C)c2c1 [Compound 9c] | 1130
CCN(CC(=O)NCCCCCC(=O)O)C(=O)n1nc(/C=C/c2ccccn2)c2ccc(Sc3ccccc3C(=O)NC)cc21 [Compound 9d] | 110
C[C@@H](CC(=O)N(C)CCC(=O)O)NC(=O)CN(C)C(=O)n1nc(C(=O)O)c2ccccc21 [Compound 13a] | 101
C[C@@H](CC(=O)O)NC(=O)C[C@H](C)NC(=O)CN(C)C(=O)n1nc(C(=O)O)c2ccccc21 [Compound 13b] | 86.4
C[C@@H](CCC(=O)NCCCCCC(=O)O)NC(=O)CN(C)C(=O)n1nc(C(=O)O)c2ccccc21 [Compound 13c] | 166
CCN(CC(=O)NCCOCCOCC(=O)O)C(=O)n1nc(C(=O)O)c2ccccc21 [Compound 13d] | 76.8
O=C(O)CCCCCNC(=O)CONC(=O)CNC(=O)n1nc(C(=O)O)c2ccccc21 [Compound 13e] | 108

Experiment: In vitro release kinetics (Example 69): cleavage rate of the reversible bond at pH 7.4 and 37° C. in aqueous buffer
Format: physicochemical
Details: aqueous sodium phosphate buffer
Procedure: The cleavage rate of the reversible bond from conjugates 18, 20, 23 was monitored at pH 7.4 and 37° C. in aqueous buffer (pH 7.4 48 mM sodium phosphate, 20% acetonitrile). Disappearance of the conjugate was determined by LCMS (UV detection) and fitted with curve fitting software to obtain the half-life of the release.

Compound | half-life [h]
CC(CCCCC(=O)O)NC(=O)CN(C)C(=O)n1ccnc1 (stereo not shown) [Compound 18] | 40.8
COC(=O)c1ccc2ncn(C(=O)N(C)CC(=O)NC(C)CCCCC(=O)O)c2c1 (stereo not shown) [Compound 20] | 43.2
CN(C)CCN(C)C(=O)n1ccc2cc(C(=O)O)ccc21 [Compound 23] | 744
